± gives the expanded uncertainty stated by the source.

Here are results for three compounds from the NIST ThermoML archive (doi:10.1016/j.jct.2008.03.015).

The conditions of the data set: Crystal 1.
As to `CCCCCCCCCCCCO` [dodecan-1-ol], the Normal melting temperature stood at 24.07 ± 0.62 °C.

`CCCCCCCCCCCCCCCCO` [1-hexadecanol]: the Normal melting temperature is 49.76 ± 0.62 °C.

Consider `CCCCCCCCCCCCCCCCCCO` [1-octadecanol], for which the Normal melting temperature was found to be 58.38 ± 0.62 °C.
